From ChEMBL document CHEMBL1201862, “PubChem BioAssay data set” (2004)
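Cultured in 96-well plates, cells were exposed to test compound for 48 hours across five concentrations. Abbreviation: GI50, concentration required for 50% inhibition of growth.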 The source made the active and inactive calls. Cut-off read from the data, not from the text of the source: active = GI50 up to about 1.1 µM and inactive = higher.

What was measured:
Test in all cases: DTP human tumour cell line panel, 48 h
TK-10 = tested on: TK-10
NCI-H460 = tested on: NCI-H460
M14 = tested on: M14
KM-20L2 = tested on: KM-20L2
SK-MEL-2 = tested on: SK-MEL-2
HT-29 = tested on: HT-29
ACHN = tested on: ACHN
HOP-62 = tested on: HOP-62
LXFL 529 = tested on: LXFL 529
UACC-62 = tested on: UACC-62
NCI-H522 = tested on: NCI-H522
HOP-92 = tested on: HOP-92
RPMI-8226 = tested on: RPMI-8226
K562 = tested on: K562
HCT-116 = tested on: HCT-116
IGROV-1 = tested on: IGROV-1
U-251 = tested on: U-251
RXF 393 = tested on: RXF 393
SK-MEL-28 = tested on: SK-MEL-28
LOX IMVI = tested on: LOX IMVI
A549 = tested on: A549
OVCAR-3 = tested on: OVCAR-3
A498 = tested on: A498
HCT-15 = tested on: HCT-15
Malme-3M = tested on: Malme-3M
OVCAR-4 = tested on: OVCAR-4
UO-31 = tested on: UO-31
NCI-H226 = tested on: NCI-H226
COLO 205 = tested on: COLO 205
SF-295 = tested on: SF-295
SNB-78 = tested on: SNB-78
HOP-18 = tested on: HOP-18
XF498 = tested on: XF498
OVCAR-5 = tested on: OVCAR-5
786-0 = tested on: 786-0
KM12 = tested on: KM12
SNB-19 = tested on: SNB-19
UACC-257 = tested on: UACC-257
SK-OV-3 = tested on: SK-OV-3
SF-539 = tested on: SF-539
SNB-75 = tested on: SNB-75
NCI-H23 = tested on: NCI-H23
SK-MEL-5 = tested on: SK-MEL-5
SW-620 = tested on: SW-620
EKVX = tested on: EKVX
M19-MEL = tested on: M19-MEL
SN12C = tested on: SN12C
MOLT-4 = tested on: MOLT-4
SF-268 = tested on: SF-268
DMS-273 = tested on: DMS-273
CCRF-CEM = tested on: CCRF-CEM
OVCAR-8 = tested on: OVCAR-8
MDA-MB-435 = tested on: MDA-MB-435
Hs-578T = tested on: Hs-578T
T47D = tested on: T47D
MDA-MB-231 = tested on: MDA-MB-231
MCF7 = tested on: MCF7
PC-3 = tested on: PC-3
CAKI-1 = tested on: CAKI-1
HCC 2998 = tested on: HCC 2998
HL-60 = tested on: HL-60
SR = tested on: SR
DMS-114 = tested on: DMS-114
DU-145 = tested on: DU-145
DLD-1 = tested on: DLD-1
NCI/ADR-RES = tested on: NCI/ADR-RES
BT-549 = tested on: BT-549

## COc1cc2ccc(C(=O)O)cc2cc1OC
TK-10
  GI50: > 100 µM (inactive)
NCI-H460
  GI50: > 100 µM (inactive)
M14
  GI50: > 100 µM (inactive)
KM-20L2
  GI50: > 100 µM (inactive)
SK-MEL-2
  GI50: > 100 µM (inactive)
HT-29
  GI50: > 100 µM (inactive)
ACHN
  GI50: > 100 µM (inactive)
HOP-62
  GI50: > 100 µM (inactive)
LXFL 529
  GI50: > 100 µM (inactive)
UACC-62
  GI50: > 100 µM (inactive)
NCI-H522
  GI50: > 100 µM (inactive)
HOP-92
  GI50: > 100 µM (inactive)
RPMI-8226
  GI50: > 100 µM (inactive)
K562
  GI50: > 100 µM (inactive)
HCT-116
  GI50: > 100 µM (inactive)
IGROV-1
  GI50: > 100 µM (inactive)
U-251
  GI50: > 100 µM (inactive)
RXF 393
  GI50: > 100 µM (inactive)
SK-MEL-28
  GI50: > 100 µM (inactive)
LOX IMVI
  GI50: > 100 µM (inactive)
A549
  GI50: > 100 µM (inactive)
OVCAR-3
  GI50: > 100 µM (inactive)
A498
  GI50: 49.7 µM (inactive)
HCT-15
  GI50: > 100 µM
Malme-3M
  GI50: > 100 µM (inactive)
OVCAR-4
  GI50: > 100 µM (inactive)
UO-31
  GI50: > 100 µM (inactive)
NCI-H226
  GI50: > 100 µM (inactive)
COLO 205
  GI50: > 100 µM (inactive)
SF-295
  GI50: > 100 µM (inactive)
SNB-78
  GI50: > 100 µM (inactive)
HOP-18
  GI50: > 100 µM (inactive)
XF498
  GI50: > 100 µM (inactive)
OVCAR-5
  GI50: > 100 µM (inactive)
786-0
  GI50: > 100 µM (inactive)
KM12
  GI50: > 100 µM (inactive)
SNB-19
  GI50: > 100 µM (inactive)
UACC-257
  GI50: > 100 µM (inactive)
SK-OV-3
  GI50: > 100 µM (inactive)
SF-539
  GI50: > 100 µM (inactive)
SNB-75
  GI50: 37.4 µM (inactive)
NCI-H23
  GI50: > 100 µM (inactive)
SK-MEL-5
  GI50: > 100 µM (inactive)
SW-620
  GI50: > 100 µM (inactive)
EKVX
  GI50: > 100 µM (inactive)
M19-MEL
  GI50: > 100 µM (inactive)
SN12C
  GI50: > 100 µM (inactive)
MOLT-4
  GI50: > 100 µM (inactive)
SF-268
  GI50: > 100 µM (inactive)
DMS-273
  GI50: > 100 µM (inactive)
CCRF-CEM
  GI50: > 100 µM (inactive)
OVCAR-8
  GI50: > 100 µM (inactive)

## C/C(=N\NC(=S)N1CCN(C2CCCCCC2)CC1)c1ccccn1
TK-10
  GI50: 0.74 µM (active)
MDA-MB-435
  GI50: 0.161 µM (active)
NCI-H460
  GI50: 0.01 µM (active)
Hs-578T
  GI50: 1.49 µM (inactive)
M14
  GI50: 0.01 µM (active)
T47D
  GI50: 0.01 µM (active)
KM-20L2
  GI50: 0.01 µM (active)
SK-MEL-2
  GI50: 0.481 µM (active)
MDA-MB-231
  GI50: 1.31 µM (inactive)
HT-29
  GI50: < 0.0343 µM (active)
ACHN
  GI50: 0.145 µM (active)
MCF7
  GI50: 0.01 µM (active)
LXFL 529
  GI50: 0.001 µM (active)
UACC-62
  GI50: < 0.012 µM (active)
PC-3
  GI50: 0.01 µM (active)
CAKI-1
  GI50: 0.037 µM (active)
NCI-H522
  GI50: < 0.0253 µM (active)
HCC 2998
  GI50: < 0.0485 µM (active)
HOP-92
  GI50: 0.0473 µM (active)
HL-60
  GI50: 0.01 µM (active)
RPMI-8226
  GI50: 0.01 µM (active)
K562
  GI50: 0.01 µM (active)
HCT-116
  GI50: 0.01 µM (active)
IGROV-1
  GI50: 0.01 µM (active)
SR
  GI50: 0.01 µM (active)
DMS-114
  GI50: 0.01 µM (active)
U-251
  GI50: < 0.0117 µM (active)
RXF 393
  GI50: 0.212 µM (active)
SK-MEL-28
  GI50: 0.238 µM (active)
LOX IMVI
  GI50: 0.01 µM (active)
A549
  GI50: < 0.0379 µM (active)
OVCAR-3
  GI50: 0.01 µM (active)
A498
  GI50: 1.49 µM (inactive)
HCT-15
  GI50: 0.01 µM
Malme-3M
  GI50: 0.105 µM (active)
OVCAR-4
  GI50: 0.041 µM (active)
UO-31
  GI50: 0.1 µM (active)
NCI-H226
  GI50: 0.0655 µM (active)
COLO 205
  GI50: 0.01 µM (active)
DU-145
  GI50: 1.02 µM (active)
SF-295
  GI50: < 0.0476 µM (active)
SNB-78
  GI50: 2.78 µM (inactive)
HOP-18
  GI50: 2.06 µM (inactive)
DLD-1
  GI50: 0.01 µM (active)
KM12
  GI50: 0.0197 µM (active)
SNB-19
  GI50: 1.71 µM (inactive)
UACC-257
  GI50: 0.01 µM (active)
SK-OV-3
  GI50: 0.0565 µM (active)
SF-539
  GI50: 0.0927 µM (active)
SNB-75
  GI50: 1.71 µM (inactive)
NCI-H23
  GI50: 0.01 µM (active)
SK-MEL-5
  GI50: 0.0249 µM (active)
SW-620
  GI50: 0.01 µM (active)
EKVX
  GI50: < 0.0121 µM (active)
M19-MEL
  GI50: 0.34 µM (active)
SN12C
  GI50: 0.111 µM (active)
MOLT-4
  GI50: 0.01 µM (active)
SF-268
  GI50: 0.337 µM (active)
NCI/ADR-RES
  GI50: 0.01 µM (active)
BT-549
  GI50: 1.27 µM (inactive)
DMS-273
  GI50: 0.01 µM (active)
CCRF-CEM
  GI50: 0.01 µM (active)
OVCAR-8
  GI50: 0.01 µM (active)

## COc1ccc(/C(Cl)=C(\C=O)c2ccccc2)cc1OC
TK-10
  GI50: 21.4 µM (inactive)
NCI-H460
  GI50: 28.8 µM (inactive)
M14
  GI50: 36.1 µM (inactive)
KM-20L2
  GI50: 44 µM (inactive)
SK-MEL-2
  GI50: 19.4 µM (inactive)
HT-29
  GI50: 28.1 µM (inactive)
ACHN
  GI50: 23.3 µM (inactive)
HOP-62
  GI50: 17.8 µM (inactive)
LXFL 529
  GI50: 12.4 µM (inactive)
UACC-62
  GI50: 7.6 µM (inactive)
CAKI-1
  GI50: 24.4 µM (inactive)
NCI-H522
  GI50: 7.1 µM (inactive)
HCC 2998
  GI50: 38.5 µM (inactive)
HL-60
  GI50: 6.78 µM (inactive)
K562
  GI50: 19.2 µM (inactive)
HCT-116
  GI50: 23.4 µM (inactive)
IGROV-1
  GI50: > 100 µM (inactive)
SR
  GI50: 5.68 µM (inactive)
DMS-114
  GI50: 13.1 µM (inactive)
U-251
  GI50: 18 µM (inactive)
RXF 393
  GI50: 14.4 µM (inactive)
LOX IMVI
  GI50: 13.2 µM (inactive)
A549
  GI50: 38.7 µM (inactive)
OVCAR-3
  GI50: 10.3 µM (inactive)
HCT-15
  GI50: 12.7 µM
Malme-3M
  GI50: 61 µM (inactive)
OVCAR-4
  GI50: 25 µM (inactive)
UO-31
  GI50: 13.5 µM (inactive)
NCI-H226
  GI50: 21 µM (inactive)
COLO 205
  GI50: 10.1 µM (inactive)
SF-295
  GI50: 17.3 µM (inactive)
SNB-78
  GI50: 16.7 µM (inactive)
HOP-18
  GI50: 30.1 µM (inactive)
OVCAR-5
  GI50: > 100 µM (inactive)
DLD-1
  GI50: 15.1 µM (inactive)
SNB-19
  GI50: 27.9 µM (inactive)
UACC-257
  GI50: 15.2 µM (inactive)
SK-OV-3
  GI50: 70.3 µM (inactive)
SF-539
  GI50: 31.4 µM (inactive)
SNB-75
  GI50: 11.6 µM (inactive)
NCI-H23
  GI50: 15.2 µM (inactive)
SK-MEL-5
  GI50: 25.4 µM (inactive)
SW-620
  GI50: 12.9 µM (inactive)
EKVX
  GI50: 3.6 µM (inactive)
M19-MEL
  GI50: 13.6 µM (inactive)
SN12C
  GI50: 11 µM (inactive)
MOLT-4
  GI50: 6.85 µM (inactive)
SF-268
  GI50: 33.1 µM (inactive)
DMS-273
  GI50: 29.8 µM (inactive)
CCRF-CEM
  GI50: 15.1 µM (inactive)
OVCAR-8
  GI50: 12.7 µM (inactive)
